From US7919488B2, “Therapeutic compounds” (Pfizer Inc., priority 2006, dated 2011)

Experiments:
Type in all cases: biochemical
CYP3A4 [1] = molecular target: T1, CYP3A4 (Homo sapiens, UniProt P08684); assay: IC50 against CYP3A4 by inhibition of testosterone metabolism in human liver microsomes; conditions: 0.1 mg/mL human liver microsomes, 25 μM testosterone, 1 mM NADPH, 6-β-OH-testosterone production, eight minutes; read-out: IC50, μM (HLM, testosterone)
T1 construct: 0.1 mg/mL human liver microsomes; from tissue; host or cells: human liver microsomes
In short: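 Testosterone used as substrate, incubated for eight minutes. 6-β-OH-testosterone formation quantified by LC-MS/MS (MRM) as peak area ratio to internal standard against a metabolite standard curve. IC50 derived from inhibition of this metabolism.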

CYP3A4 [2] = molecular target: T1, CYP3A4; assay: IC50 against CYP3A4 by inhibition of midazolam metabolism in human liver microsomes; conditions: 0.1 mg/mL human liver microsomes, 2 μM midazolam, 1 mM NADPH, 1-hydroxymidazolam production, eight minutes; read-out: IC50, μM (HLM, midazolam)
In short: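 Human liver microsomes (0.1 mg/mL) incubated 8 min with 2 μM midazolam and 1 mM NADPH in 100 mM potassium phosphate, pH 7.4. 1-Hydroxymidazolam quantified by LC-MS/MS (MRM) as peak area ratio to internal standard against a metabolite standard curve.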

[3] = molecular target: T2, recombinant CYP3A4-b5 enzyme (Baculosomes®) (Homo sapiens, UniProt P08684); assay: Kiapp against recombinant CYP3A4 enzyme (Baculosomes), BFC substrate; conditions: recombinant CYP3A4-b5 (Invitrogen), 5 uM BFC, 200 uM NADPH, pre-incubation at least 30 minutes, pH 7.0, room temperature
T2 construct: purchased Invitrogen (Carlsbad, Calif.)
In short: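 Recombinant CYP3A4-b5 Baculosomes were run in 100 mM sodium phosphate pH 7.0 with 5 mM TCEP and 2% DMF at room temperature, with ~30 min pre-incubation. The reaction was started with NADPH (200 uM) and BFC (5 uM), both final. Kiapp came from initial fluorescence velocities over the first 5 min across inhibitor concentrations.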

[4] = molecular target: T3, recombinant CYP3A4+b5 enzyme (Supersomes®) (Homo sapiens, UniProt P08684); assay: Kiapp against recombinant CYP3A4 enzyme (Supersomes), BFC substrate; conditions: recombinant CYP3A4+b5 (BD Biosciences), 5 uM BFC, 200 uM NADPH, pre-incubation at least 30 minutes, pH 7.0, room temperature
T3 construct: purchased BD Biosciences (Woburn, Mass.)
Method: 1. Determination of Compound Kiapp
A determination of the Kiapp of the compounds of the invention against recombinant CYP3A4 enzyme was performed as follows. The assay was performed in a 100 mM sodium phosphate buffer pH 7.0, 5 mM TCEP and containing 2% dimethylformamide (final concentration) upon addition of substrate and inhibitor. A typical reaction for the determination of Kiapp values was carried at room temperature in a solid black Costar u-bottom 96-well polypropylene plate. In each well, recombinant CYP3A4 enzyme (5.5 nM or 8 nM, final concentration depending on the commercial source of the enzyme) was pre-incubated in the presence of the inhibitor for at least 30 minutes in the assay buffer. When pre-incubation was completed (˜30 min), the reaction was initiated by adding NADPH (200 uM, final concentration), and 7-benzyloxy-4-(trifluoromethyl)-coumarin (BFC) (5 uM, final concentration). The oxidation of the coumarin substrate was recorded by a 96-well plate reader POLARstar (BMG LABTECH, Offenburg, Germany).
The initial reaction velocities were measured during the first 5 min of the reaction when the release of the fluorescent product is linear with time, in the absence and in the presence of various concentrations of inhibitors. For non-partial & partial inhibitors, the Kiapp values were determined by using the equation for tight-binding inhibitor developed by Morrison, J F (Morrison J F. Biochim Biophys Acta. 1969, 185: 269-86) and by Szedlaseck S E et al. (Szedlascek, S. E., Ostafe, V., Serban, M., and Vlad, M. O. Biochem. J. 1988, 254:311-312), respectively.
The fluorescent substrate BFC was purchased from Sigma (St Louis, Mo.). Two commercial sources of recombinant enzymes were used in this study: recombinant CYP3A4-b5 enzyme (Baculosomes®) was purchased from Invitrogen (Carlsbad, Calif.) and the recombinant CYP3A4+b5 enzyme (Supersomes®) was purchased from BD Biosciences (Woburn, Mass.).

T1 sequence (P08684 whole entry): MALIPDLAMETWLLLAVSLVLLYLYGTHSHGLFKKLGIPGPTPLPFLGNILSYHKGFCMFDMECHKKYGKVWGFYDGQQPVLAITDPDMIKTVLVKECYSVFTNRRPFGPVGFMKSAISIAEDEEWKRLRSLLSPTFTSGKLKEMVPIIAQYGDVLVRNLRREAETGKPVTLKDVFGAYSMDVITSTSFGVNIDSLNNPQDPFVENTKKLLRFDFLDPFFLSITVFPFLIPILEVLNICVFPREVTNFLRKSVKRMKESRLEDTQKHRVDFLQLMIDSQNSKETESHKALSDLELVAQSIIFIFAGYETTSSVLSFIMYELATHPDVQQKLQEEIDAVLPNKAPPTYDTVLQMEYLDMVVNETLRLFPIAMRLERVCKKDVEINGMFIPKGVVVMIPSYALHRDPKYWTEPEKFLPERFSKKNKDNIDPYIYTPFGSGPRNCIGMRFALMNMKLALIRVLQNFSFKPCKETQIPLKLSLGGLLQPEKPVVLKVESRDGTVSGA
T2 sequence (P08684 whole entry): as above
T3 sequence (P08684 2-503 limits assumed): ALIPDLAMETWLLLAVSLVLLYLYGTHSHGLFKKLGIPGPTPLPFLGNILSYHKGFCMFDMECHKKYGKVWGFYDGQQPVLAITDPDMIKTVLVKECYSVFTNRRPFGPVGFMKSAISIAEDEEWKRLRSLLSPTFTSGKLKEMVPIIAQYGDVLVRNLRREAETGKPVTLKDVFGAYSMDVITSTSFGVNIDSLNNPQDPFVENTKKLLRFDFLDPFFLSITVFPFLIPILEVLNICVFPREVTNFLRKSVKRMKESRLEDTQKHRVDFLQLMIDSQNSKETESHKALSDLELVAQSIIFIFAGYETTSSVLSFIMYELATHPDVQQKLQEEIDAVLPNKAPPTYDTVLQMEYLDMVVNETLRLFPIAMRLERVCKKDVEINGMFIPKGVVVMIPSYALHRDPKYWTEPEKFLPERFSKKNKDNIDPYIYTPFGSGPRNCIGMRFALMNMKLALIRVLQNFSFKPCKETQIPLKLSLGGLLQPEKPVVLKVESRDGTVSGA

Row | SMILES | IC50 (CYP3A4 [1]) [µM] | IC50 (CYP3A4 [2]) [µM] | Ki [3] [µM] | Ki [4] [µM]
1 | CC(C)NC(=O)NC1CCN(C(=O)Cn2nc(-c3ccncc3)cc2Cc2ccc(F)cc2)CC1 [Example 17, N-(1-{[5-(4-fluorobenzyl)-3-pyridin-4-yl-1H-pyrazol-1-yl]acetyl}piperidin-4-yl)-N′-isopropylurea] | 0.035 | 0.0115 | 0.0667 | 0.0231
2 | CS(=O)(=O)NC1CCN(C(=O)Cn2nc(-c3ccncc3)cc2Cc2ccc(F)cc2)CC1 [Example 19, N-(1-{2-[5-(4-fluorobenzyl)-3-pyridin-4-yl-1H-pyrazol-1-yl]acetyl}piperidin-4-yl)methanesulfonamide] | 0.033 | 0.0138 | 0.128 | 0.0057
3 | CC(C)(CN1CCOCC1)NC(=O)Cn1nc(-c2c[nH]nn2)cc1Cc1ccc(F)cc1 [Example 50, N-(1,1-dimethyl-2-morpholin-4-ylethyl)-2-[5-(4-fluorobenzyl)-3-(1H-1,2,3-triazol-4-yl)-1H-pyrazol-1-yl]acetamide] | 0.168 | 0.132 | 0.729 | 0.389
4 | CC(=O)NC(C)(C)CNC(=O)Cn1nc(-c2ccncc2)cc1Cc1ccc(F)cc1 [Example 71, N-[2-(acetylamino)-2-methylpropyl]-2-[5-(4-fluorobenzyl)-3-pyridin-4-yl-1H-pyrazol-1-yl]acetamide] | 0.035 | 0.034 | 0.0599 | 0.0237
5 | CN(C)[C@H]1CCN(C(=O)Cn2nc(-c3ccncc3)cc2Cc2ccc(F)cc2)C1 [Example 73, (3S)-1-{[5-(4-fluorobenzyl)-3-pyridin-4-yl-1H-pyrazol-1-yl]acetyl}-N,N-dimethylpyrrolidin-3-amine] | 0.0435 | 0.018 | 0.211 | 0.0339
6 | O=C(Cn1nc(-c2ccncc2)cc1Cc1ccc(F)cc1)NC1CCS(=O)(=O)C1 (stereo not drawn) [Example 93, N-(1,1-dioxidotetrahydro-3-thienyl)-2-[5-(4-fluorobenzyl)-3-pyridin-4-yl-1H-pyrazol-1-yl]acetamide] | 0.007 | 0.014 | 0.0134 | 0.0039
7 | O=C(Cn1nc(-c2ccncc2)cc1Cc1ccc(F)cc1)N[C@H]1CC[C@@H](O)CC1 [Example 95, 2-[5-(4-fluorobenzyl)-3-pyridin-4-yl-1H-pyrazol-1-yl]-N-(cis-4-hydroxycyclohexyl)-acetamide] | < 0.021 | < 0.012 | 0.0871 | 0.0059
8 | CC(=O)N(C)C1CCN(C(=O)Cn2nc(-c3ccncc3)cc2Cc2ccc(F)cc2)C1 (stereo not drawn) [Example 99, N-(1-{[5-(4-fluorobenzyl)-3-pyridin-4-yl-1H-pyrazol-1-yl]acetyl}pyrrolidin-3-yl)-N-methylacetamide] | 0.064 | 0.032 | 0.248 | 0.0178
9 | CC(=O)N[C@@H]1CCN(C(=O)Cn2nc(-c3ccncc3)cc2Cc2ccc(F)cc2)C1 [Example 100, N-[(3R)-1-{2-[5-(4-fluorobenzyl)-3-pyridin-4-yl-1H-pyrazol-1-yl]acetyl}pyrrolidin-3-yl]acetamide] | 0.0845 | 0.044 | 0.298 | 0.0225
10 | O=C(Cn1nc(-c2ccncc2)cc1Cc1ccc(F)cc1)N1CCC(N2CCOC2=O)CC1 [Example 118, 3-(1-{[5-(4-fluorobenzyl)-3-pyridin-4-yl-1H-pyrazol-1-yl]acetyl}piperidin-4-yl)-1,3-oxazolidin-2-one] | 0.013 | 0.00837 | 0.0442 | 0.0065
11 | CS(=O)(=O)NC1CCN(C(=O)Cn2nc(-c3c[nH]cn3)cc2Cc2ccc(F)cc2)CC1 [Example 119, N-(1-{2-[5-(4-fluorobenzyl)-3-(1H-imidazol-4-yl)-1H-pyrazol-1-yl]acetyl}piperidin-4-yl)methanesulfonamide] | > 0.75 | 0.167 | 0.314 | 0.166
12 | O=C(Cn1nc(-c2ccncc2)cc1Cc1ccc(F)cc1)N1CCC(N2CCCS2(=O)=O)CC1 [Example 120, 4-[1-{2-[4-(1,1-dioxidoisothiazolidin-2-yl)piperidin-1-yl]-2-oxoethyl}-5-(4-fluorobenzyl)-1H-pyrazol-3-yl]pyridine] | 0.027 | 0.017 | 0.003 | 0.0068
13 | O=C(Cn1nc(-c2ccncc2)cc1Cc1ccc(F)cc1)N1CC(N2CCOCC2)C1 [Example 121, 4-(1-{[5-(4-fluorobenzyl)-3-pyridin-4-yl-1H-pyrazol-1-yl]acetyl}azetidin-3-yl)morpholine] | 0.088 | 0.045 | 0.0978 | 0.0136
14 | CC(=O)N(C)C1CCN(C(=O)Cn2nc(-c3c[nH]cn3)cc2Cc2ccc(F)cc2)CC1 [Example 122, N-(1-{[5-(4-fluorobenzyl)-3-(1H-imidazol-4-yl)-1H-pyrazol-1-yl]acetyl}piperidin-4-yl)-N-methylacetamide] | > 0.75 | 0.62 | 0.482 | 0.178
15 | CN(C(=O)Cn1nc(-c2c[nH]cn2)cc1Cc1ccc(F)cc1)[C@H]1CC[C@H](O)CC1 [Example 123, 2-[5-(4-fluorobenzyl)-3-(1H-imidazol-4-yl)-1H-pyrazol-1-yl]-N-(trans-4-hydroxycyclohexyl)-N-methylacetamide] | 0.554 | 0.397 | 0.459 | 0.167
16 | COC(=O)NC1CN(C(=O)Cn2nc(-c3ccncc3)cc2Cc2ccc(F)cc2)C1 [Example 124, methyl (1-{[5-(4-fluorobenzyl)-3-pyridin-4-yl-1H-pyrazol-1-yl]acetyl}azetidin-3-yl)carbamate] | 0.032 | 0.025 | 0.123 | 0.0147
17 | CS(=O)(=O)NC1CN(C(=O)Cn2nc(-c3ccncc3)cc2Cc2ccc(F)cc2)C1 [Example 125, N-(1-{2-[5-(4-fluorobenzyl)-3-pyridin-4-yl-1H-pyrazol-1-yl]acetyl}azetidin-3-yl)methanesulfonamide] | 0.027 | 0.022 | 0.0666 | 0.00884
18 | CNC(=O)NC1CN(C(=O)Cn2nc(-c3ccncc3)cc2Cc2ccc(F)cc2)C1 [Example 126, 1-(1-{[5-(4-fluorobenzyl)-3-pyridin-4-yl-1H-pyrazol-1-yl]acetyl}azetidin-3-yl)-3-methylurea] | 0.059 | 0.034 | 0.196 | 0.031
19 | CC(=O)NC1CN(C(=O)Cn2nc(-c3ccncc3)cc2Cc2ccc(F)cc2)C1 [Example 127, N-(1-{2-[5-(4-fluorobenzyl)-3-pyridin-4-yl-1H-pyrazol-1-yl]acetyl}azetidin-3-yl)acetamide] | 0.08 | 0.041 | 0.141 | 0.0191
20 | COC(=O)N(C)C1CCN(C(=O)Cn2nc(-c3ccncc3)cc2Cc2ccc(F)cc2)C1 (stereo not drawn) [Example 128, methyl (1-{[5-(4-fluorobenzyl)-3-pyridin-4-yl-1H-pyrazol-1-yl]acetyl}pyrrolidin-3-yl)methylcarbamate] | 0.026 | 0.022 | 0.0488 | 0.00507
21 | CNC(=O)N(C)C1CCN(C(=O)Cn2nc(-c3ccncc3)cc2Cc2ccc(F)cc2)C1 (stereo not drawn) [Example 129, 1-(1-{[5-(4-fluorobenzyl)-3-pyridin-4-yl-1H-pyrazol-1-yl]acetyl}pyrrolidin-3-yl)-1,3-dimethylurea] | 0.066 | 0.022 | 0.312 | 0.017
